Values of other authors as cited in PMC4982639, “Structural Basis of Microtubule Destabilization by Potent Auristatin Anti-Mitotics” (PLoS ONE, 2016).

Legend:
tubulin dimers = details: in vitro
Excerpt: This model of curvature between dimers is supported in vitro by the formation of curved spiral or r ...

free tubulin = test system: free tubulin
Excerpt: (§1) Low resolution crystal structures of dolastatin 10 derivatives in complex with tubulin have further confirmed the region of binding for the auristatins, which overlaps w ...

tubulin = details: compared with vinca alkaloids, free tubulin
Excerpt: as §1

cellular assays = details: stated in the conclusions as background; no reference given
[1] = test system: cells expressing the CD30 epitope; details: released in the cytosol from the internalized ADC Brentuximab vedotin
Excerpt: The mechanisms by which these molecules act on tubulin dimers include the induction of curved aggregates and inhibition of nucleotide exchange. MMAE comprises the four amino acids monomethylvaline (MeVal), valine (Val), dolaisoleuine (Dil) and dolaproine (Dap), and the carboxy-terminal amine norephedrine (Fig 1A). This agent provides the cytotoxic activity for the ADC Brentuximab vedotin, currently designated for relapsed Hodgkin lymphoma and anaplastic large cell lymphoma. Bren ...

Compound | formation of curved aggregates (tubulin dimers) | potency in cellular assays (cellular assays) | also measured
CC[C@]1(O)C[C@@H]2CN(CCc3c([nH]c4ccccc34)[C@@](C(=O)OC)(c3cc4c(cc3OC)N(C)[C@H]3[C@@](O)(C(=O)OC)[C@H](OC(C)=O)[C@]5(CC)C=CCN6CC[C@]43[C@@H]65)C2)C1 [vinblastine] | formation of curved spiral or ring shaped aggregates |  | 
cryptophycin | formation of curved spiral or ring shaped aggregates |  | 
dolastatin | formation of curved spiral or ring shaped aggregates |  | 
dolastatin 10 |  |  | type of inhibition of vinca alkaloids (free tubulin): non-competitive inhibitor of the vinca alkaloids; inhibition of nucleotide exchange (tubulin): much greater inhibition of nucleotide exchange
monomethyl auristatin E [MMAE] |  | nano- and picomolar potency | cellular effect of released MMAE [1]: mitotic arrest and apoptosis
monomethyl auristatin F [MMAF] |  | nano- and picomolar potency | 
